From US8575186B2, “Epiminocycloalkyl[b] indole derivatives as serotonin sub-type 6 (5-HT6) modulators and uses thereof” (Albany Molecular Research, Inc., priority 2009, dated 2013)
Like-named read-outs stand apart in the source and are kept apart here.

Legend:
[1] = target: 5HT6 receptor (Rattus norvegicus (Rat), UniProt P31388); test: ex vivo receptor occupancy measurements; type: in vivo; details: oral dosing at 30 mg/kg, Sprague-Dawley rats
Method: This table illustrates representative compounds tested for 5HT6 affinity in the human binding assay. […] Example 158 had 42% occupancy of the 5HT6 receptor after oral dosing at 30 mg/kg using ex vivo receptor occupancy measurements in Sprague-Dawley rats.

[2] = target: human 5-HT6 receptor (Homo sapiens (Human), UniProt P50406); test: radioligand binding assay (SPA format), [N-methyl-3H]-LSD; details: read-out: human 5HT6 Ki, human 5-HT6 receptor membranes, 10 nM [3H]-LSD
Chain of human 5-HT6 receptor (P50406 whole entry): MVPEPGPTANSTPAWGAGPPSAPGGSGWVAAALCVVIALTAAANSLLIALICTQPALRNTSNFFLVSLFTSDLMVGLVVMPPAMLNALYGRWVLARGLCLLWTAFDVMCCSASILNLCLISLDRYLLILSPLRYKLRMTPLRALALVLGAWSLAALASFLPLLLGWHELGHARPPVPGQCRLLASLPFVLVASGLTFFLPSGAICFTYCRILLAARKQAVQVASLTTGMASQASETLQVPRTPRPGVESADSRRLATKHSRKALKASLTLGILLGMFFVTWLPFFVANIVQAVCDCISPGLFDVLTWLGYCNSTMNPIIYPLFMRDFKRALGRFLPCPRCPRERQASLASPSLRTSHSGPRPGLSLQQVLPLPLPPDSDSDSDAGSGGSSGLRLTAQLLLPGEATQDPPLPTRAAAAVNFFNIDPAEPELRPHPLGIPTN

Chain of 5HT6 receptor (P31388 whole entry): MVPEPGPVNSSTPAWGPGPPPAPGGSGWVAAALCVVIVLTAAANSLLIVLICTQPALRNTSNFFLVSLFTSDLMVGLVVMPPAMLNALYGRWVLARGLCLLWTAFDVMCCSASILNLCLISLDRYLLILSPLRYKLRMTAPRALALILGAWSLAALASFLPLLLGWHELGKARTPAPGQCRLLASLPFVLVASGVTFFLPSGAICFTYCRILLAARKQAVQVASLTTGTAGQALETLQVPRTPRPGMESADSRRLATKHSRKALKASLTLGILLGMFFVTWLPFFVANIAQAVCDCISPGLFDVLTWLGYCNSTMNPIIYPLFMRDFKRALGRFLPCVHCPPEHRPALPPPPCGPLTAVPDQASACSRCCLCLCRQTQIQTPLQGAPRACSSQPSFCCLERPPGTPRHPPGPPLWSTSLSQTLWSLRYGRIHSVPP

| SMILES | receptor occupancy at 30 mg/kg [1] [%] | Ki [2] [nM] | melting point | Ki ([2]; hydrochloride) [nM] |
| --- | --- | --- | --- | --- |
| Cn1c2c(c3cc(S(=O)(=O)c4cccc(Cl)c4)ccc31)C1CCC(C2)N1 (stereo not shown) [Example 158] | 42 | 1.9 |  |  |
| COc1cccc(S(=O)(=O)c2ccc3c(c2)c2c(n3C)CC3CCC2N3)c1.Cl (stereo not shown) [Example 41, 2-(3-Methoxyphenyl)sulfonyl-5-methyl-5,6,7,8,9,10-hexahydro-7,10-epiminocyclohepta[b]indole hydrochloride] |  | 17 | 186 to 190 °C |  |
| Cl.O=S(=O)(c1ccccc1)c1ccc2c(c1)c1c(n2CCO)CC2CCC1N2 (stereo not shown) [Example 89, 2-Phenylsulfonyl-5-(2-hydroxy)ethyl-5,6,7,8,9,10-hexahydro-7,10-epiminocyclohepta[b]indole hydrochloride] |  | 432 | 185 to 190 °C |  |
| CC(C)n1c2c(c3cc(S(=O)(=O)c4ccccc4)ccc31)C1CCC(C2)N1.Cl (stereo not shown) [Example 87, 2-Phenylsulfonyl-5-isopropyl-5,6,7,8,9,10-hexahydro-7,10-epiminocyclohepta[b]indole hydrochloride] |  |  | 260 to 265 °C | 350 |
| Cl.Cn1c2c(c3cc(S(=O)(=O)c4ccc(C#N)cc4)ccc31)C1CCC(C2)N1 (stereo not shown) [Example 30, 2-(4-Cyanophenyl)sulfonyl-5-methyl-5,6,7,8,9,10-hexahydro-7,10-epiminocyclohepta[b]indole hydrochloride] |  |  | 216 to 218 °C | 410 |
| Cc1cn(S(=O)(=O)c2ccc3c(c2)c2c(n3C)CC3CCC2N3)c2ccccc12.Cl (stereo not shown) [Example 68, 2-[1-(3-Methyl)-indole]sulfonyl-5-methyl-5,6,7,8,9,10-hexahydro-7,10-epiminocyclohepta[b]indole hydrochloride] |  |  | 212 to 215 °C | 1.2 |
| Cl.O=S(=O)(c1ccccc1)c1ccc2c(c1)c1c(n2-c2ccccc2)CC2CCC1N2 (stereo not shown) [Example 88, 2-Phenylsulfonyl-5-phenyl-5,6,7,8,9,10-hexahydro-7,10-epiminocyclohepta[b]indole hydrochloride] |  | 350 | 195 to 200 °C |  |
| Cl.Cn1c2c(c3cc(S(=O)(=O)c4ccc(F)cc4)ccc31)C1CCC(C2)N1 (stereo not shown) [Example 28, 2-(4-Fluorophenyl)sulfonyl-5-methyl-5,6,7,8,9,10-hexahydro-7,10-epiminocyclohepta[b]indole hydrochloride] |  | 60 | 210 to 214 °C |  |
| Cc1cc(S(=O)(=O)c2cccc(OC(F)(F)F)c2)cc2c3c(n(C)c12)CC1CCC3N1.Cl (stereo not shown) [Example 76, 2-(3-Trifluoromethoxy-phenyl)sulfonyl-4,5-dimethyl-5,6,7,8,9,10-hexahydro-7,10-epiminocyclohepta[b]indole hydrochloride] |  | 6.9 | 220 to 222 °C |  |
| CCn1c2c(c3cc(S(=O)(=O)c4ccccc4)ccc31)C1CCC(C2)N1.Cl (stereo not shown) [Example 90, 2-Phenylsulfonyl-5-ethyl-5,6,7,8,9,10-hexahydro-7,10-epiminocyclohepta[b]indole hydrochloride] |  | 52 | 200 to 204 °C (dec.) |  |
| CN1C2CCC1c1c(n(C)c3ccc(S(=O)(=O)c4ccsc4)cc13)C2.Cl (stereo not shown) [Example 70, 2-(3-thienyl)sulfonyl-5-methyl-5,6,7,8,9,10-hexahydro-7,10-N-methyl-epiminocyclohepta[b]indole hydrochloride] |  | 8.2 | 238 to 240 °C |  |
| Cc1cc(S(=O)(=O)c2cccc(C(F)(F)F)c2)cc2c3c(n(C)c12)CC1CCC3N1.Cl (stereo not shown) [Example 75, 2-(3-Trifluoromethyl-phenyl)sulfonyl-4,5-dimethyl-5,6,7,8,9,10-hexahydro-7,10-epiminocyclohepta[b]indole hydrochloride] |  | 3.6 | 227 to 229 °C |  |
| Cl.Cn1c2c(c3ccc(S(=O)(=O)c4ccccc4)cc31)C1CCC(C2)N1 (stereo not shown) [Example 91, 3-Phenylsulfonyl-5-methyl-5,6,7,8,9,10-hexahydro-7,10-epiminocyclohepta[b]indole hydrochloride] |  | 115 | 252 to 256 °C |  |
| Cl.Cn1c2c(c3cc(S(=O)(=O)c4ccccc4)cc(F)c31)C1CCC(C2)N1 (stereo not shown) [Example 81, 2-(Phenylsulfonyl)-4-fluoro-5-methyl-5,6,7,8,9,10-hexahydro-7,10-epiminocyclohepta[b]indole hydrochloride] |  | 13 | 251 to 256 °C (dec.) |  |
| Cl.Cn1c2c(c3cc(S(=O)(=O)c4cncc(F)c4)ccc31)C1CCC(C2)N1 (stereo not shown) [Example 59, 2-[3-(5-Fluoro)-pyridine]sulfonyl-5-methyl-5,6,7,8,9,10-hexahydro-7,10-epiminocyclohepta[b]indole hydrochloride] |  | 139 | 212 to 215 °C |  |
| CNc1cccc(S(=O)(=O)c2ccc3c(c2)c2c(n3C)CC3CCC2N3)c1.Cl (stereo not shown) [Example 46, 2-[(3-N-Methylamino)phenyl]sulfonyl-5-methyl-5,6,7,8,9,10-hexahydro-7,10-epiminocyclohepta[b]indole hydrochloride] |  | 6.5 | 208 to 212 °C (dec.) |  |
| Cl.Cn1c2c(c3cc(S(=O)(=O)c4cccnc4)ccc31)C1CCC(C2)N1 (stereo not shown) [Example 61, 2-(3-Pyridine)sulfonyl-5-methyl-5,6,7,8,9,10-hexahydro-7,10-epiminocyclohepta[b]indole hydrochloride] |  | 156 | 226 to 228 °C |  |
